Results reported in BindingDB's records for doi:10.1016/s0960-894x(01)00219-0 (Research Biomet. Glaxo Wellcome Medicines Research Centre, 2001).

target: not listed separately; experiment: Inhibition of erbB2 overexpressing BT 474 cell proliferation

SMILES | IC50 [nM]
CN(C)c1cc2c(Nc3ccc4c(cnn4Cc4ccccc4)c3)ncnc2cn1 [N*4*-(1-Benzyl-1H-indazol-5-yl)-N*6*,N*6*-dimethyl-pyrido[3,4-d]pyrimidine-4,6-diamine] | 70

target: Receptor tyrosine-protein kinase erbB-2 (Rattus norvegicus, UniProt P06494); experiment: ChEBML_194950
Sequence (P06494 whole entry): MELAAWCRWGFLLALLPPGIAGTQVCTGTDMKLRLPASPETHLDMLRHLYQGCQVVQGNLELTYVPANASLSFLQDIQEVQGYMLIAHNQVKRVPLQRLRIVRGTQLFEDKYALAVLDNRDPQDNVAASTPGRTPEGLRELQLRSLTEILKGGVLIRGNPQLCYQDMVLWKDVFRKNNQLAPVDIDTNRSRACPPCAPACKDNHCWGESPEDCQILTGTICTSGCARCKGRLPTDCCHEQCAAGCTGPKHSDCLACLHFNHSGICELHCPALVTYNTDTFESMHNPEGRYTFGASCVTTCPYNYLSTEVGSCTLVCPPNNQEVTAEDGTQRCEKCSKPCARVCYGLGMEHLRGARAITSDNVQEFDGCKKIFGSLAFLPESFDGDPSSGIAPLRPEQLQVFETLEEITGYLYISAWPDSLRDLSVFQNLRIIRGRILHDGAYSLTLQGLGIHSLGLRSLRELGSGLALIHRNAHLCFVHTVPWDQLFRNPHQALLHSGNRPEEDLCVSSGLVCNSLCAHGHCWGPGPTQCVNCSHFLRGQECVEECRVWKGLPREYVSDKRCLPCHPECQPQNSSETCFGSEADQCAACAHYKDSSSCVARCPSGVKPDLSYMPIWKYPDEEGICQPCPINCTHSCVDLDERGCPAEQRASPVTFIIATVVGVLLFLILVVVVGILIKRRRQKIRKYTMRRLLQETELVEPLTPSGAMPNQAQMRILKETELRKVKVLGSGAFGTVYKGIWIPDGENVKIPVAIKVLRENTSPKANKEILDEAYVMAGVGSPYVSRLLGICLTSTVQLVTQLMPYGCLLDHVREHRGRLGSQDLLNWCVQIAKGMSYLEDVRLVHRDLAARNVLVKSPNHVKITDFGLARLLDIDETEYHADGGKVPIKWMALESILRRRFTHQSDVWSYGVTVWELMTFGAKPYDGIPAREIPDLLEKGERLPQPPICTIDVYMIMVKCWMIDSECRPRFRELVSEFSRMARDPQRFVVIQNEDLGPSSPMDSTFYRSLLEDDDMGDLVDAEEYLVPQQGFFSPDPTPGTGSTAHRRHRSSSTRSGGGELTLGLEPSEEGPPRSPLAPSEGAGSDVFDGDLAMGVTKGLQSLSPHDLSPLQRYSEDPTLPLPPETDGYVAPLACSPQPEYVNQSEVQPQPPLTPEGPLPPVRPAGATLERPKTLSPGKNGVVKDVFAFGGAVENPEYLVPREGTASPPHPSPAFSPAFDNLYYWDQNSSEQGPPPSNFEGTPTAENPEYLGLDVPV
Description: Inhibition of rat Receptor protein-tyrosine kinase erbB2

SMILES | IC50 [nM]
CN(C)c1cc2c(Nc3ccc4c(cnn4Cc4ccccc4)c3)ncnc2cn1 [N*4*-(1-Benzyl-1H-indazol-5-yl)-N*6*,N*6*-dimethyl-pyrido[3,4-d]pyrimidine-4,6-diamine] | 390

target: not listed separately; experiment: Inhibition of erbB2 overexpressing HB4a.e5.2 cell proliferation

SMILES | IC50 [nM]
CN(C)c1cc2c(Nc3ccc4c(cnn4Cc4ccccc4)c3)ncnc2cn1 [N*4*-(1-Benzyl-1H-indazol-5-yl)-N*6*,N*6*-dimethyl-pyrido[3,4-d]pyrimidine-4,6-diamine] | 97

target: not listed separately; experiment: Inhibition of c-erbB-2 overexpressing HB4a cell proliferation

SMILES | IC50 [nM]
c1ccc(Cn2cnc3cc(Nc4ncnc5ccccc45)ccc32)cc1 [(1-Benzyl-1H-benzoimidazol-5-yl)-quinazolin-4-yl-amine] | 27000
COc1cc2ncnc(Nc3ccc4c(cnn4Cc4ccccc4)c3)c2cc1OC [(1-Benzyl-1H-indazol-5-yl)-(6,7-dimethoxy-quinazolin-4-yl)-amine] | 290
COc1cc2ncnc(Nc3ccc4c(ccn4Cc4ccccc4)c3)c2cc1OC [(1-Benzyl-1H-indol-5-yl)-(6,7-dimethoxy-quinazolin-4-yl)-amine] | 350
c1ccc(Cn2ccc3cc(Nc4ncnc5ccccc45)ccc32)cc1 [(1-Benzyl-1H-indol-5-yl)-quinazolin-4-yl-amine] | 1300
COc1cc2ncnc(Nc3ccc4nc(Cc5ccccc5)[nH]c4c3)c2cc1OC [(2-Benzyl-1H-benzoimidazol-5-yl)-(6,7-dimethoxy-quinazolin-4-yl)-amine] | 1100
c1ccc(Cc2nc3ccc(Nc4ncnc5ccccc45)cc3[nH]2)cc1 [(2-Benzyl-1H-benzoimidazol-5-yl)-quinazolin-4-yl-amine] | 1300
COc1cc2ncnc(Nc3ccc4nn(Cc5ccccc5)cc4c3)c2cc1OC [(2-Benzyl-2H-indazol-5-yl)-(6,7-dimethoxy-quinazolin-4-yl)-amine] | 3100
c1ccc(Cn2cnc3ccc(Nc4ncnc5ccccc45)cc32)cc1 [(3-Benzyl-3H-benzoimidazol-5-yl)-quinazolin-4-yl-amine] | 21000
Nc1cc2c(Nc3ccc4c(cnn4Cc4ccccc4)c3)ncnc2cn1 [N*4*-(1-Benzyl-1H-indazol-5-yl)-pyrido[3,4-d]pyrimidine-4,6-diamine] | 97
Nc1cc2c(Nc3ccc4nc(Cc5ccccc5)[nH]c4c3)ncnc2cn1 [N*4*-(2-Benzyl-1H-benzoimidazol-5-yl)-pyrido[3,4-d]pyrimidine-4,6-diamine] | 1860
